From US12071404B2, “Aza (indole)-, benzothiophene-, and benzofuran-3-sulfonamides” (UCB Pharma GmbH, priority 2016, dated 2024)

What follows are compounds tested against GPR17 (Homo sapiens, UniProt Q13304) (assay: Calcium mobilization functional assay (GPR17 Ca2+ assay)). Conditions: CHO hGPR17 cells, inhibition of 50 nM MDL29,951, Calcium 5 dye, FLIPR; read-out: Ca2+ assay pIC50 (converted).
Type: cell-based
Set-up: host or cells: Flp-In T-REx CHO
Method: Flp-In T-REx CHO cells stably expressing human GPR17 receptor (CHO hGPR17) from Evi Kostenis' lab (Bonn University, Germany) were cultured at 37° C. in a humidified atmosphere of 5% CO2. Cells were grown in DMEM with Nutrient Mixture F-12 supplemented with hygromycin B (500 μg/mL) and blasticidin (30 μg/mL). Expression from the Flp-In locus was induced by treatment with doxycycline (1 μg/mL) for 16-20 h prior assays.
GPR17 is a G-protein coupled receptor. GPR17 activation triggers Gq-type G-protein signaling resulting in endoplasmic reticulum calcium (Ca^2+) stores release in cytosol which can be measured using Calcium 5 dye, a fluorescent indicator dye of cytosolic Ca^2+ levels. All Examples were tested in GPR17 Ca^2+ assay to determine (screen) their GPR17 modulating activity.
CHO hGPR17 were defrosted and seeded at a density of 20,000 cells per well into black 384-well plates with clear bottom. Cells were incubated overnight at 37° C. in a humidified atmosphere of 5% CO2. Sixteen to twenty hours after seeding, CHO hGPR17 were loaded for 60 min with Calcium 5 dye, a cytosolic Ca^2+ indicator fluorescent dye, according to manufacturer's instructions. Fluorescent signal relative to cytosolic Ca^2+ concentration was recorded over time at room temperature in FLIPR Tetra reader. […] Then, 50 nM MDL29,951, a GPR17 agonist, was added to the cells. Inhibitory effects of varying concentrations test compounds were measured and resulting plC50s were determined. […] Analysis and curve fitting were performed in ActivityBase XE using XLfit 4-parameter logistic equation y=A+((B−A)/(1+((C/x)^D))) where A, B, C and D stand for minimum y, maximum y, IC50 and slope, respectively.
The activities of the Example compounds tested are depicted in the table in Section B2B below. The activity ranges A, B and C refer to plC50 values in the Ca^2+ assay as follows: “A”: plC50<7.5, “B”: plC50 7.5<x≤ 8.5, “C”: plC50>8.5

Sequence of GPR17 (Q13304 whole entry): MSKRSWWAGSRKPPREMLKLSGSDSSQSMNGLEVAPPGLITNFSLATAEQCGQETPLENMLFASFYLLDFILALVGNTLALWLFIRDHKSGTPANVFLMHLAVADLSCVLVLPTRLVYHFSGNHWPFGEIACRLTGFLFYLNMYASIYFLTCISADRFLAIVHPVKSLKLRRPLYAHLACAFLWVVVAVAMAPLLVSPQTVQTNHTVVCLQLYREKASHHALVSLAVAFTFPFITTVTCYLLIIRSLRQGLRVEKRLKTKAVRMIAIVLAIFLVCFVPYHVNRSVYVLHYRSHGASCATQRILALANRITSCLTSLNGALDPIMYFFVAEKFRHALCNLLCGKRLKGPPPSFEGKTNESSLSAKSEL

Row | SMILES | IC50 [nM]
1 | O=S(=O)(Nc1ccc(C(F)(F)F)cn1)c1c[nH]c2cc(Cl)ccc12 [Compound I-211, 6-chloro-N-[5-(trifluoromethyl)pyridin-2-yl]-1H-indole-3-sulfonamide] | > 31.6
2 | O=S(=O)(Nc1cc(F)c(F)cc1F)c1c[nH]c2cc(C(F)(F)F)ccc12 [Compound I-54, 6-(trifluoromethyl)-N-(2,4,5-trifluorophenyl)-1H-indole-3-sulfonamide] | > 31.6
3 | COC(=O)c1ccc(NS(=O)(=O)c2c[nH]c3cc(Cl)ccc23)cc1 [Compound I-6, methyl 4-{[(6-chloro-1H-indol-3-yl)sulfonyl]amino}benzoate] | > 31.6
4 | Cc1ccc(NS(=O)(=O)c2c[nH]c3cc(Cl)ccc23)cc1F [Compound I-7, 6-chloro-N-(3-fluoro-4-methylphenyl)-1H-indole-3-sulfonamide] | > 31.6
5 | Cc1cc2c(S(=O)(=O)Nc3cccc4c3OCO4)c[nH]c2cc1Br [Compound I-35, N-(1,3-benzodioxol-4-yl)-6-bromo-5-methyl-1H-indole-3-sulfonamide] | > 31.6
6 | O=S(=O)(Nc1ncccc1F)c1c[nH]c2cc(Cl)ccc12 [Compound I-128, 6-chloro-N-(3-fluoropyridin-2-yl)-1H-indole-3-sulfonamide] | > 31.6
7 | N#Cc1ccc2c(S(=O)(=O)Nc3cc4c(cc3F)OC(F)(F)O4)c[nH]c2c1 [Compound I-68, 6-cyano-N-(2,2,6-trifluoro-1,3-benzodioxol-5-yl)-1H-indole-3-sulfonamide] | > 31.6
8 | O=S(=O)(Nc1ccc(Br)cc1)c1c[nH]c2cc(Cl)ccc12 [Compound I-218, N-(4-bromophenyl)-6-chloro-1H-indole-3-sulfonamide] | > 31.6
9 | N#CCc1ccc(NS(=O)(=O)c2c[nH]c3cc(Cl)ccc23)cc1 [Compound I-180, 6-chloro-N-[4-(cyanomethyl)phenyl]-1H-indole-3-sulfonamide] | > 31.6
10 | O=S(=O)(Nc1cccc2nsnc12)c1c[nH]c2c(Br)cccc12 [Compound I-111, N-(2,1,3-benzothiadiazol-4-yl)-7-bromo-1H-indole-3-sulfonamide] | > 31.6
11 | N#Cc1cc(F)c(NS(=O)(=O)c2c[nH]c3c(Br)cccc23)cc1F [Compound I-167, 7-bromo-N-(4-cyano-2,5-difluorophenyl)-1H-indole-3-sulfonamide] | 3.16 to 31.6
12 | O=S(=O)(Nc1ccc2nsnc2c1)c1c[nH]c2cc(F)ccc12 [Compound I-169, N-(2,1,3-benzothiadiazol-5-yl)-6-fluoro-1H-indole-3-sulfonamide] | > 31.6
13 | Cc1ccc(NS(=O)(=O)c2c[nH]c3c2ccc2ccccc23)c(F)c1 [Compound I-121, N-(2-fluoro-4-methylphenyl)-1H-benzo[g]indole-3-sulfonamide] | > 31.6
14 | O=S(=O)(Nc1cccc2c1OC(F)(F)O2)c1c[nH]c2nc(Br)ccc12 [Compound I-102, 6-bromo-N-(2,2-difluoro-1,3-benzodioxol-4-yl)-1H-pyrrolo[2,3-b]pyridine-3-sulfonamide] | 3.16 to 31.6
15 | N#Cc1cc(F)c(NS(=O)(=O)c2c[nH]c3c4c(ccc23)CCC4)cc1F [Compound I-148, N-(4-cyano-2,5-difluorophenyl)-1,6,7,8-tetrahydrocyclopenta[g]indole-3-sulfonamide] | < 3.16
16 | CS(=O)(=O)c1ccc2c(S(=O)(=O)Nc3cc(F)ccc3F)c[nH]c2c1 [Compound I-28, N-(2,5-difluorophenyl)-6-(methylsulfonyl)-1H-indole-3-sulfonamide] | > 31.6

More lines, now with the values ahead:

Row | IC50 [nM] | SMILES
17 | 3.16 to 31.6 | O=S(=O)(Nc1ccc2nsnc2c1)c1c[nH]c2c1ccc1ccccc12 [Compound I-157, N-(2,1,3-benzothiadiazol-5-yl)-1H-benzo[g]indole-3-sulfonamide]
18 | > 31.6 | COCc1ccc(NS(=O)(=O)c2c[nH]c3cc(Cl)ccc23)cc1 [Compound I-122, 6-chloro-N-(4-(methoxymethyl)phenyl)-1H-indole-3-sulfonamide]
19 | > 31.6 | O=S(=O)(Nc1ccc2nsnc2c1)c1c[nH]c2c3c(ccc12)CCC3 [Compound I-158, N-(2,1,3-benzothiadiazol-5-yl)-1,6,7,8-tetrahydrocyclopenta[g]indole-3-sulfonamide]
20 | > 31.6 | N#Cc1ccc(NS(=O)(=O)c2c[nH]c3cc(F)ccc23)cc1 [Compound I-171, N-(4-cyanophenyl)-6-fluoro-1H-indole-3-sulfonamide]
21 | > 31.6 | O=S(=O)(Nc1ccc2c(c1)OCO2)c1c[nH]c2cc(Cl)ccc12 [Compound I-5, N-(1,3-benzodioxol-5-yl)-6-chloro-1H-indole-3-sulfonamide]
22 | 3.16 to 31.6 | O=S(=O)(Nc1cc2nsnc2cc1F)c1c[nH]c2nc(Cl)ccc12 [Compound I-144, 6-chloro-N-(6-fluoro-2,1,3-benzothiadiazol-5-yl)-1H-pyrrolo[2,3-b]pyridine-3-sulfonamide]
23 | > 31.6 | O=S(=O)(Nc1ccc(F)cc1F)c1c[nH]c2nc(Cl)ccc12 [Compound I-86, 6-chloro-N-(2,4-difluorophenyl)-1H-pyrrolo[2,3-b]pyridine-3-sulfonamide]
24 | > 31.6 | O=S(=O)(Nc1cccc2c1OC(F)(F)O2)c1c[nH]c2ncc(I)cc12 [Compound I-99, N-(2,2-difluoro-1,3-benzodioxol-4-yl)-5-iodo-1H-pyrrolo[2,3-b]pyridine-3-sulfonamide]
25 | < 3.16 | N#Cc1cc(F)c(NS(=O)(=O)c2c[nH]c3cc(F)ccc23)cc1F [Compound I-165, N-(4-cyano-2,5-difluorophenyl)-6-fluoro-1H-indole-3-sulfonamide]
26 | > 31.6 | N#Cc1ccc(NS(=O)(=O)c2c[nH]c3ccccc23)c(F)c1 [Compound I-105, N-(4-cyano-2-fluorophenyl)-1H-indole-3-sulfonamide]
27 | > 31.6 | O=S(=O)(Nc1cc2c(cc1F)OC(F)(F)O2)c1c[nH]c2c1ccc1cccnc12 [Compound I-70, N-(2,2,6-trifluoro-1,3-benzodioxol-5-yl)-1H-pyrrolo[3,2-h]quinoline-3-sulfonamide]
28 | > 31.6 | O=S(=O)(Nc1cc(F)cc(F)c1)c1c[nH]c2nc(Br)ccc12 [Compound I-89, 6-bromo-N-(3,5-difluorophenyl)-1H-pyrrolo[2,3-b]pyridine-3-sulfonamide]
29 | > 31.6 | C#Cc1ccc(NS(=O)(=O)c2c[nH]c3cc(Cl)ccc23)cc1 [Compound I-22, 6-chloro-N-(4-ethynylphenyl)-1H-indole-3-sulfonamide]
30 | > 31.6 | O=S(=O)(Nc1ccc(Cl)cc1F)c1c[nH]c2cc3c(cc12)OCO3 [Compound I-43, N-(4-chloro-2-fluorophenyl)-5H-[1,3]dioxolo[4,5-f]indole-7-sulfonamide]
31 | > 31.6 | O=S(=O)(Nc1ccccc1Cl)c1c[nH]c2cc(Cl)ccc12 [Compound I-26, 6-chloro-N-(2-chlorophenyl)-1H-indole-3-sulfonamide]
32 | < 3.16 | COc1nc(NS(=O)(=O)c2c[nH]c3cc(Br)ccc23)c(F)cc1CC#N [Compound I-320, 6-bromo-N-[5-(cyanomethyl)-3-fluoro-6-methoxypyridin-2-yl]-1H-indole-3-sulfonamide]
33 | > 31.6 | COc1ccc2c(S(=O)(=O)Nc3cc4c(cc3F)OC(F)(F)O4)c[nH]c2c1 [Compound I-71, 6-methoxy-N-(2,2,6-trifluoro-1,3-benzodioxol-5-yl)-1H-indole-3-sulfonamide]
